Source: patent US20250177366A1, “COMPOSITIONS AND METHODS FOR ALLEVIATING PAIN AND REDUCING ADVERSIVENESS OF STIMULI” (UNIVERSITY OF WASHINGTON, priority 2021, published 2025)

How the values were obtained:
Format in all cases: in vivo, Zebrafish (Danio rerio)
larval zebrafish [1] = test: Light/dark preference (phototaxis) assay; conditions: for effect of co-applied drug on AS1-induced preference for the dark: drug + 2.5 μM AS1; for light/dark preference, drug alone: without AS1
Experimental: Following this, whether the effects of AS1 were restricted to somatosensation or were generalizable to other aversive stimuli were tested. Thus, the effects of AS1 on light/dark preference were tested. Zebrafish larvae prefer white light environments to dark environments and this preference is inhibited by anxiolytics, analagous to studies in rodents (Lau et al., Proc. Natl. Acad. Sci. U.S.A 2011; 108:2581-2586; Burgess et al., Curr. Biol. 2010; 20:381-386). To measure light/dark preference, larval zebrafish were placed in a square arena and given the choice between a bright white light and total darkness, and the number of larvae on each side was quantified at 30 second intervals. Five 4-minute trials were performed, where the light and dark sides of the arena were reversed between trials. […] Given the precise control over stimulus luminosity in this assay, the effects of altering the intensity of the dark stimulus were explored next. In this gradient version of the phototaxis assay, larval zebrafish were given the choice between a bright white environment and one of six potential shades of darkness, ranging from light gray to solid black. […] This implies that the valence of non-painful noxious stimuli is precisely encoded in an intensity-dependent manner, and that AS1 exerts its effects in proportion to the intensity of the stimulus.
Light/dark preference (phototaxis) assay. In the light/dark preference assay, randomly-selected 6 dpf larval zebrafish (N of 30 to 40) were carefully pipetted onto a 10 cm square petri dish using a 10 mL pipette pump equipped with a glass wide-bored Pasteur pipet. As much E2 media as possible was carefully removed using the same pipet. For single incubation experiments, 30 mL of 1× solutions of the control or test chemical was added to each petri dish, and fish were incubated for 10 minutes at 28.5° C. For double incubation experiments, 15 mL of 1× solutions containing control (DMSO) or test chemicals was added to the larvae-containing petri dish. Following a ten-minute incubation period, 15 mL of the second incubation solution (1× control or test chemical +/−2× AS1) was added to the petri dish, and the fish were incubated for a second ten minute block. The final concentration of DMSO in all solutions was 1%. In all double-incubation experiments, the final concentration of AS1 was 2.5 μM. These petri dishes were then positioned over a horizontally-oriented computer monitor displaying a PowerPoint presentation. For standard light/dark preference assays, a blank white slide was initially presented for one minute, after which the presentation would automatically advance to a slide in which half of the display was black. The petri dish with larvae was positioned such that exactly half was directly over the dark side, and the other half was directly over the light side. After four minutes, the presentation automatically advanced to a slide in which the black and white halves switched places. A total of five four-minute trials, with the dark/light halves automatically switching position between trials, were recorded. For the gradient phototaxis assay, experiments were performed identically, except that the “dark” half of the powerpoint presentation was one of six shades of gray.
In all experiments, an initial still frame of video was taken during the minute where the blank slide was presented in order to quantify the total number of fish in the experiment. Following this, still frames were taken at 30 second intervals for each trial ([…]), and the number of fish present in the light half of the arena were counted. To generate the graphs that looked at swimming patterns over time in a trial (e.g., FIG. 3D), the average percentage of fish in the light at each time point (T=0, T=30, etc.) was calculated across all five trials. […]

larval zebrafish [2] = test: AITC aversion assay (chemical attraction/aversion, AITC-infused agarose); conditions: AITC 100 mM in agarose; for effect of co-applied drug on AS1-induced attraction to AITC: drug + AS1 (5 μM; 2.5 μM with SKF and sumanirole); for AITC aversion, drug alone: without AS1
Description: Whether the effects of AS1 extended beyond noxious temperature sensation or could also impact other somatosensory modalities was next explored. To accomplish this, a chemical attraction/aversion assay where a thin layer of agarose was deposited along the edges of a square arena (Jordi et al., Sci. Adv. 2018; 4:1-15) were adapted. Along one wall, the agarose contained the chemical to be tested, while the other three walls were lined with control agarose. It was anticipated that a chemical gradient would be established as chemical diffused from the agarose into the surrounding water. Larvae were pre-incubated in either vehicle or AS1 and then added to the arena and the distance of each larva from the chemical-infused agarose was measured. In control experiments where all four walls of the arena were lined with agarose only, AS1 and vehicle-treated larvae were dispersed evenly throughout the arena (FIG. 3). […] When the nociceptive chemical AITC (100 mM, 10,000× maximal effective dose) was tested, vehicle-treated larvae swam away from the AITC source.
(§1) Chemical attraction/aversion assays. The agarose attraction/aversion assay was adapted from previously described experiments (Jordi et al., Sci. Adv. 2018; 4:1-15). For the AITC aversion assay, AITC and DMSO were added to molten 0.8% agarose to achieve a final concentration of 100 mM AITC and 2% DMSO. For the AS1 attraction/aversion assay, AS1 and DMSO were added to 0.8% molten agar to achieve final concentrations of 50 mM and 2%, respectively. To construct the test chambers, the lids of 10×10 cm square petri dishes (insert cat #and company) were lined on four sides with either the test (chemical-containing) or plain agarose (300 μL per side) and allowed to solidify. For all experiments, 30-40 randomly selected 6 dpf zebrafish were caught with a 10 mL pipette pump (Bel-Air Products, cat #: 13683C) equipped with a glass wide-bored Pasteur pipet (Fisher Scientific, cat #: 22-037-540) and deposited into a standard 10 cm diameter petri dish (Fisher Scientific, cat #: 07-202-031). As much E2 media as possible was carefully removed using the same pipette. For single incubation experiments, 30 mL of 1× solutions of the control or test chemical was added to each petri dish, and fish were incubated for 10 minutes at 28.5° C. For double incubation experiments, 15 mL of 1× solutions containing control (DMSO) or test chemicals was added to the larvae-containing petri dish. Following a ten minute incubation, 15 mL of the second incubation solution (1× control or test chemical +/−2× AS1) was added to the petri dish, and the fish were incubated for a second ten minute block. The final concentration of DMSO in all solutions was 1%. In all double-incubation experiments, the final concentration of AS1 was 5 μM unless otherwise noted. After completion of the last incubation period, the contents of each petri dish were poured into separate agarose-lined square dishes. Swimming behavior was immediately recorded for 20 minutes using the same high-definition camcorder in the thermal preference assays.

larval zebrafish [3] = test: Thermal preference assay (28.5° C. vs 37.5° C.), non-sensitized; conditions: for effect of co-applied drug on AS1-induced attraction to noxious heat / temperature choice, drug alone: 28.5° C. vs 37.5° C.; for effect of co-applied drug on AS1-induced attraction to noxious heat / effect of co-applied drug on swimming velocity of AS1-treated fish: drug + 5 μM AS1; for temperature choice, drug alone: without AS1; for effect of co-applied drug on swimming velocity of AS1-treated fish: 28.5 and 37.5° C. zones
Experimental: Thermal preference assay. […] Once an entire plate was loaded with fish, the appropriate incubation solution was added. […] Following incubation in all experiments, the choice testing plate was transported to a dual solid-state heat/cool plate (AHP-1200° C. P; Teca) and centered such that half of each arena was positioned over each side of the heat/cool plate. […] Locomotor behavior was recorded using a Canon high-definition video camcorder suspended at a fixed position above the choice testing plate. Each trial was four minutes in duration.
For single-incubation assays (e.g. testing single chemicals), larval zebrafish were caught in 100 μL E2 media and 100 μL of the control (2% DMSO) or test chemical at 2× concentration was added to each well to achieve the final desired concentration. […] The final DMSO concentration in all solutions was 1%.

larval zebrafish [4] = test: Chemical attraction/aversion assay with the test chemical itself as source (inherent attractiveness); conditions: 2 mL in trough of 3D-printed arena; SKF 25 μM; AS1 10 μM-1 mM
Description: To confirm that AS1 itself was not attractive, the chemical attraction/aversion assay was used. […] Since the assay was modified to accommodate the inability to dissolve SKF into agarose at high concentrations (see Materials and Methods), the inherent attractiveness of AS1 was re-tested using this new format.
as §1, with “Following a ten minute incubation, 15 mL of the second incubation solution (1× control or test chemical +/−2× AS1) was added to the petri dish, and the fish were incubated for a second ten minute block. The final concentration of DMSO in all solutions was 1%. In all double-incubation experiments, the final concentration of AS1 was 5 μM unless otherwise noted. After completion of the last incubation period, the contents of each petri dish were poured into separate agarose-lined square dishes.” left out
For the SKF attraction/aversion assay, custom 10 cm×10 cm plates using clear resin (Formlabs, cat #: RS-F2-GPCL-04) and a Form 3+3D printer (Formlabs, cat #: PKG-F3-WSVC-BASIC) were designed. […] Swimming behavior was then recorded for 20 minutes. […]

Row | Compound | effect of co-applied drug on AS1-induced preference for the dark (larval zebrafish [1]) | light/dark preference, drug alone (larval zebrafish [1]) | effect of co-applied drug on AS1-induced attraction to AITC (larval zebrafish [2]) | AITC aversion, drug alone (larval zebrafish [2]) | effect of co-applied drug on AS1-induced attraction to noxious heat (larval zebrafish [3]) | temperature choice, drug alone (larval zebrafish [3]) | effect of co-applied drug on swimming velocity of AS1-treated fish (larval zebrafish [3]) | inherent attractiveness of chemical deposited into trough (larval zebrafish [4])
1 | sumanirole maleate | had no effect | had no effect | did seem to attenuate AS1-mediated attraction to AITC, but only at higher concentrations | had little effect alone in the chemical aversion assay | had no effect | had no effect |  | 
2 | CCN1CCCC1CNC(=O)c1cc(S(N)(=O)=O)ccc1OC (stereo not drawn) [sulpiride] | had no effect | had no effect | had no effect | had no effect | had no effect | had no effect | had no effect | 
3 | C=CCN1CCc2c(cc(O)c(O)c2Cl)C(c2ccccc2)C1 (stereo not drawn) [SKF82958] | reversed dark preference in fish that were treated with AS1 | slight decrease in the proportion of fish found in the light by itself | did block AS1-induced preference to this chemical irritant | had little effect upon aversion to AITC | significantly attenuated the amount of time AS1-treated fish spent at 37.5 °C | slight potentiation of preference for the 28.5 °C side | reduced the swimming velocity of AS1-treated zebrafish in the 28.5 °C zone | mildly attractive
